Results from ChEMBL document CHEMBL3044820, “Evaluation of Benzenesulfonanilide Derivatives for the Control of Crucifers Clubroot” (1996).

Tests used:
Type in all cases: functional
[1] = system: Plasmodiophora brassicae; assay: Fungicidal activity against clubroot disease causing Plasmodiophora brassicae infested Brassica campestris under greenhouse condition assessed as disease incidence at 4 kg a.i/ha treated to soil measured after 40 to 50 days
[2] = system: Plasmodiophora brassicae; assay: Fungicidal activity against clubroot disease causing Plasmodiophora brassicae infested Brassica campestris under greenhouse condition assessed as disease incidence at 2 kg a.i/ha treated to soil measured after 40 to 50 days
[3] = system: Plasmodiophora brassicae; assay: Fungicidal activity against clubroot disease causing Plasmodiophora brassicae infested Brassica campestris under greenhouse condition assessed as disease incidence at 0.5 kg a.i/ha treated to soil measured after 40 to 50 days

Row | Compound | Activity [1] | Activity [2] | Activity [3]
1 | Cc1ccc(NS(=O)(=O)c2ccc(C)c([N+](=O)[O-])c2)c([N+](=O)[O-])c1 | 0% |  | 
2 | Cc1ccc([N+](=O)[O-])cc1NS(=O)(=O)c1ccc([N+](=O)[O-])cc1 | 0% |  | 
3 | O=S(=O)(Nc1ccc(C(F)(F)F)cc1Cl)c1cccc(C(F)(F)F)c1 | >91% | >91% | >91%
4 | O=S(=O)(Nc1ccc(C(F)(F)F)cc1)c1cccc(C(F)(F)F)c1 | 0% |  | 
5 | O=[N+]([O-])c1ccc(NS(=O)(=O)c2ccccc2)c(Cl)c1 | >91% | 0% | 
6 | N#Cc1cccc(S(=O)(=O)Nc2ccc(Cl)cc2Cl)c1 | 0% |  | 
7 | COC(=O)c1ccc(NS(=O)(=O)c2cccc(C(F)(F)F)c2)cc1 | 0% |  | 
8 | Cc1cc([N+](=O)[O-])ccc1NS(=O)(=O)c1ccc(Cl)c(Cl)c1 | >91% | >91% | 0%
9 | O=[N+]([O-])c1ccc(S(=O)(=O)Nc2cccc([N+](=O)[O-])c2)cc1 | 0% |  | 
10 | O=[N+]([O-])c1ccc(NS(=O)(=O)c2cc(Cl)c(Cl)cc2Cl)c(F)c1 | >91% | >91% | 71%
11 | Cc1ccc([N+](=O)[O-])cc1S(=O)(=O)Nc1ccc([N+](=O)[O-])cc1Cl | >91% | >91% | 0%
12 | O=[N+]([O-])c1ccc(NS(=O)(=O)c2ccc(Cl)c(C(F)(F)F)c2)c(Cl)c1 [FLUSULFAMIDE] | >91% | >91% | >91%
13 | CN(C)C(=O)c1ccc(NS(=O)(=O)c2cccc(C(F)(F)F)c2)c(Cl)c1 | 0% |  | 
14 | O=[N+]([O-])c1ccc(NS(=O)(=O)c2cc(Cl)ccc2Cl)c(Cl)c1 | >91% | >91% | 26%
15 | O=[N+]([O-])c1ccc(NS(=O)(=O)c2ccc(Cl)c(Cl)c2)c(Cl)c1 | >91% | 26% | 
16 | Cc1ccc(S(=O)(=O)Nc2cccc([N+](=O)[O-])c2)cc1[N+](=O)[O-] | 0% |  | 
17 | Cc1ccc(S(=O)(=O)Nc2ccc(Br)cc2)cc1 | 0% |  | 
18 | O=S(=O)(Nc1ccc(C(F)(F)F)cc1)c1ccc(Cl)c(Cl)c1 | >91% | 26% | 0%
19 | Cc1ccc(S(=O)(=O)Nc2ccc([N+](=O)[O-])cc2Cl)cc1 | >91% | >91% | 26%
20 | Cc1cc([N+](=O)[O-])ccc1NS(=O)(=O)c1ccc(Cl)cc1 | >91% | 0% | 

Row | Compound | Activity [1] | Activity [2] | Activity [3]
21 | Cc1ccc(S(=O)(=O)Nc2cc([N+](=O)[O-])ccc2Cl)cc1[N+](=O)[O-] | 26% | 0% | 
22 | O=[N+]([O-])c1ccc(S(=O)(=O)Nc2ccc([N+](=O)[O-])cc2Cl)cc1 | 0% | 0% | 
23 | O=[N+]([O-])c1cccc(S(=O)(=O)Nc2ccc([N+](=O)[O-])cc2Cl)c1 | 71% | 26% | 
24 | COc1ccc([N+](=O)[O-])cc1NS(=O)(=O)c1ccccc1[N+](=O)[O-] | 0% |  | 
25 | Cc1ccc(S(=O)(=O)Nc2ccc(F)cc2)cc1 | 0% |  | 
26 | O=[N+]([O-])c1ccc(NS(=O)(=O)c2ccc([N+](=O)[O-])cc2)cc1 | 0% | 0% | 
27 | O=[N+]([O-])c1ccc(NS(=O)(=O)c2ccccc2[N+](=O)[O-])cc1 | 51% | 0% | 
28 | O=[N+]([O-])c1cc(Cl)c(NS(=O)(=O)c2ccccc2)c(Cl)c1 | >91% | 0% | 
29 | CCOC(=O)c1ccc(NS(=O)(=O)c2ccc(Cl)cc2)c(Cl)c1 | 0% |  | 
30 | CN(C)C(=O)c1ccc(NS(=O)(=O)c2ccc(Cl)c(Cl)c2)c(Cl)c1 | 0% |  | 
31 | Cc1ccc(S(=O)(=O)Nc2ccc(F)c([N+](=O)[O-])c2)cc1[N+](=O)[O-] | 51% | 26% | 
32 | Cc1ccc(S(=O)(=O)Nc2ccc([N+](=O)[O-])cc2)cc1[N+](=O)[O-] | 26% | 0% | 
33 | N#Cc1cccc(S(=O)(=O)Nc2ccc([N+](=O)[O-])cc2Cl)c1 | 0% | 0% | 
34 | O=S(=O)(Nc1ccccc1Cl)c1cc(C(F)(F)F)ccc1Cl | 0% |  | 
35 | CCOC(=O)c1ccc(NS(=O)(=O)c2cccc(C(F)(F)F)c2)cc1 | 0% | 0% | 
36 | N#Cc1cccc(S(=O)(=O)Nc2ccc(C(F)(F)F)cc2)c1 | 26% | 0% | 
37 | Cc1ccc(S(=O)(=O)Nc2ccc([N+](=O)[O-])cc2C)cc1 | 0% | 0% | 
38 | O=[N+]([O-])c1cccc(NS(=O)(=O)c2cccc([N+](=O)[O-])c2)c1 | 0% |  | 
39 | Cc1cc([N+](=O)[O-])ccc1NS(=O)(=O)c1cccc(C#N)c1 | 0% | 0% | 
40 | CN(C)C(=O)c1ccc(NS(=O)(=O)c2cccc(C(F)(F)F)c2)cc1 | 0% |  | 

Row | Compound | Activity [1] | Activity [2] | Activity [3]
41 | Cc1cc([N+](=O)[O-])ccc1NS(=O)(=O)c1ccc([N+](=O)[O-])cc1 | 0% | 0% | 
42 | N#Cc1ccc(NS(=O)(=O)c2ccc(Cl)c(Cl)c2)cc1 | 0% |  | 
43 | N#Cc1cccc(S(=O)(=O)Nc2ccc(C(F)(F)F)cc2Cl)c1 | 51% | 0% | 
44 | COC(=O)c1ccc(NS(=O)(=O)c2ccc(Cl)c(C(F)(F)F)c2)c(Cl)c1 | 0% |  | 
45 | N#Cc1ccc(NS(=O)(=O)c2cccc(C(F)(F)F)c2)cc1 | 0% |  | 
46 | Cc1ccc(S(=O)(=O)Nc2c(C)cccc2[N+](=O)[O-])cc1[N+](=O)[O-] | 26% | 0% | 
47 | CCCOC(=O)c1ccc(NS(=O)(=O)c2cccc(C(F)(F)F)c2)cc1 | 0% | 0% | 
48 | O=[N+]([O-])c1cccc(NS(=O)(=O)c2ccccc2[N+](=O)[O-])c1 | 0% |  | 
49 | O=[N+]([O-])c1ccc(NS(=O)(=O)c2ccc(Cl)cc2)c(Cl)c1 | >91% | >91% | 
50 | COC(=O)c1ccc(NS(=O)(=O)c2ccc(Cl)c(Cl)c2)c(Cl)c1 | 0% |  | 
51 | Cc1ccc(S(=O)(=O)Nc2ccc([N+](=O)[O-])cc2C)c(C)c1 | 0% | 0% | 
52 | Cc1ccc([N+](=O)[O-])cc1NS(=O)(=O)c1ccc(Cl)c([N+](=O)[O-])c1 | 0% |  | 
53 | COc1ccc([N+](=O)[O-])cc1NS(=O)(=O)c1cccc([N+](=O)[O-])c1 | 0% |  | 
54 | Cc1ccc([N+](=O)[O-])cc1NS(=O)(=O)c1ccc(C)c([N+](=O)[O-])c1 | 0% |  | 
55 | Cc1cc([N+](=O)[O-])ccc1NS(=O)(=O)c1ccc(C)c([N+](=O)[O-])c1 | 0% | 0% | 
56 | COc1ccc([N+](=O)[O-])cc1NS(=O)(=O)c1ccc([N+](=O)[O-])cc1 | 0% |  | 
57 | Cc1ccc(NS(=O)(=O)c2ccc([N+](=O)[O-])cc2)c([N+](=O)[O-])c1 | 0% |  | 
58 | Cc1ccc(S(=O)(=O)Nc2ccc(C(F)(F)F)cc2Cl)cc1 | 51% | 0% | 
59 | Cc1ccc(C)c(S(=O)(=O)Nc2ccc([N+](=O)[O-])cc2C)c1 | >91% | 26% | 
